Test results from PubChem BioAssay (NCI).
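How tested: cells in 96-well plates exposed to compound for 48 hours at five concentrations. GI50: concentration for 50% inhibition of growth. The concentration for full growth arrest is given as TGI.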

Assays:
Assay in all cases: NCI anticancer screen, dose series, 48 h
[1] = tested on: 786-0 renal
[2] = tested on: A498 renal
[3] = tested on: A549 NSCLC
[4] = tested on: ACHN renal
[5] = tested on: BT-549 breast
[6] = tested on: CAKI-1 renal
[7] = tested on: CCRF-CEM leukemia
[8] = tested on: COLO 205 colon
[9] = tested on: DU-145 prostate
[10] = tested on: EKVX NSCLC
[11] = tested on: HCC-2998 colon
[12] = tested on: HCT-116 colon
[13] = tested on: HCT-15 colon
[14] = tested on: HL-60(TB) leukemia
[15] = tested on: HOP-62 NSCLC
[16] = tested on: HOP-92 NSCLC
[17] = tested on: HS 578T breast
[18] = tested on: HT29 colon
[19] = tested on: IGROV1 ovarian
[20] = tested on: K-562 leukemia
[21] = tested on: KM12 colon
[22] = tested on: LOX IMVI melanoma
[23] = tested on: M14 melanoma
[24] = tested on: MALME-3M melanoma
[25] = tested on: MCF7 breast
[26] = tested on: MDA-MB-231 breast
[27] = tested on: MDA-MB-435
[28] = tested on: MOLT-4 leukemia
[29] = tested on: NCI-H226 lung
[30] = tested on: NCI-H23 lung
[31] = tested on: NCI-H460 lung
[32] = tested on: NCI-H522 lung
[33] = tested on: NCI/ADR-RES ovarian
[34] = tested on: OVCAR-3 ovarian
[35] = tested on: OVCAR-4 ovarian
[36] = tested on: OVCAR-5 ovarian
[37] = tested on: OVCAR-8 ovarian
[38] = tested on: PC-3 prostate
[39] = tested on: RXF 393 renal
[40] = tested on: SF-268 CNS
[41] = tested on: SF-295 CNS
[42] = tested on: SF-539 CNS
[43] = tested on: SK-MEL-2 melanoma
[44] = tested on: SK-MEL-28 melanoma
[45] = tested on: SK-MEL-5 melanoma
[46] = tested on: SK-OV-3 ovarian
[47] = tested on: SN12C renal
[48] = tested on: SNB-19 CNS
[49] = tested on: SNB-75 CNS
[50] = tested on: SR leukemia
[51] = tested on: SW-620 colon
[52] = tested on: T-47D breast
[53] = tested on: TK-10 renal
[54] = tested on: U251 CNS
[55] = tested on: UACC-257 melanoma
[56] = tested on: UACC-62 melanoma
[57] = tested on: UO-31 renal

For `O=C(O)CCCN1C(=O)/C(=C/C(Cl)=C/c2ccccc2)SC1=S`, which GI50 [1] is on record?
Its GI50 is 2.33 µM.

What about the TGI [1] of the same molecule?
Its TGI is 6.39 µM.

What about the GI50 [2] of the same molecule?
Its GI50 is 1.96 µM.

And the TGI [2]?
Its TGI is 3.57 µM.

What about the GI50 [3] of the same molecule?
Its GI50 is 3.02 µM.

What about the TGI [3] of the same molecule?
The TGI was 11.9 µM.

What about the GI50 [4] of the same molecule?
The GI50 was 1.2 µM.

What about the TGI [4] of the same molecule?
The TGI was 4.4 µM.

What about the GI50 [5] of the same molecule?
Its GI50 is 1.91 µM.

What about the TGI [5] of the same molecule?
Its TGI is 4.8 µM.

And the GI50 [6]?
Its GI50 is 1.66 µM.

And the TGI [6]?
The TGI was 3.76 µM.

What about the GI50 [7] of the same molecule?
Its GI50 is 0.786 µM.

And the TGI [7]?
The TGI was 10.2 µM.

What about the GI50 [8] of the same molecule?
The GI50 was 1.9 µM.

And the TGI [8]?
Its TGI is 4.49 µM.

And the GI50 [9]?
The GI50 was 1.79 µM.

What about the TGI [9] of the same molecule?
Its TGI is 4.39 µM.

What about the GI50 [10] of the same molecule?
The GI50 was 2.21 µM.

And the TGI [10]?
The TGI was 5.91 µM.

What about the GI50 [11] of the same molecule?
Its GI50 is 1.83 µM.

And the TGI [11]?
Its TGI is 3.41 µM.

And the GI50 [12]?
The GI50 was 1.13 µM.

What about the TGI [12] of the same molecule?
Its TGI is 4 µM.

And the GI50 [13]?
Its GI50 is 1.03 µM.

What about the TGI [13] of the same molecule?
The TGI was 6.06 µM.

What about the GI50 [14] of the same molecule?
Its GI50 is 0.551 µM.

What about the TGI [14] of the same molecule?
Its TGI is 10.5 µM.

And the GI50 [15]?
Its GI50 is 2.94 µM.

And the TGI [15]?
Its TGI is 10.5 µM.

What about the GI50 [16] of the same molecule?
Its GI50 is 3.17 µM.

And the TGI [16]?
The TGI was 9.78 µM.

What about the GI50 [17] of the same molecule?
Its GI50 is 2.73 µM.

And the TGI [17]?
The TGI was 10.6 µM.

And the GI50 [18]?
Its GI50 is 2.85 µM.

And the TGI [18]?
The TGI was 10.6 µM.

And the GI50 [19]?
The GI50 was 2.07 µM.

What about the TGI [19] of the same molecule?
The TGI was 6.04 µM.

What about the GI50 [20] of the same molecule?
The GI50 was 1.52 µM.

And the TGI [20]?
Its TGI is 16.3 µM.

What about the GI50 [21] of the same molecule?
Its GI50 is 1.47 µM.

And the TGI [21]?
Its TGI is 3.54 µM.

And the GI50 [22]?
The GI50 was 0.383 µM.

And the TGI [22]?
Its TGI is 1.38 µM.

What about the GI50 [23] of the same molecule?
The GI50 was 1.81 µM.

What about the TGI [23] of the same molecule?
Its TGI is 5.12 µM.

What about the GI50 [24] of the same molecule?
Its GI50 is 2.09 µM.

And the TGI [24]?
The TGI was 5.24 µM.

What about the GI50 [25] of the same molecule?
The GI50 was 0.6 µM.

And the TGI [25]?
Its TGI is 11.4 µM.

What about the GI50 [26] of the same molecule?
Its GI50 is 3.17 µM.

And the TGI [26]?
Its TGI is 10.7 µM.

What about the GI50 [27] of the same molecule?
Its GI50 is 1.94 µM.

And the TGI [27]?
Its TGI is 5.96 µM.

And the GI50 [28]?
Its GI50 is 0.591 µM.

And the TGI [28]?
The TGI was 11.9 µM.

What about the GI50 [29] of the same molecule?
The GI50 was 2.98 µM.

What about the TGI [29] of the same molecule?
The TGI was 18.4 µM.

And the GI50 [30]?
Its GI50 is 2.34 µM.

What about the TGI [30] of the same molecule?
Its TGI is 6.27 µM.

What about the GI50 [31] of the same molecule?
The GI50 was 2.47 µM.

And the TGI [31]?
The TGI was 6.76 µM.

What about the GI50 [32] of the same molecule?
The GI50 was 2.21 µM.

And the TGI [32]?
Its TGI is 6.62 µM.

And the GI50 [33]?
Its GI50 is 2.39 µM.

And the TGI [33]?
Its TGI is 9.35 µM.

What about the GI50 [34] of the same molecule?
The GI50 was 1.39 µM.

What about the TGI [34] of the same molecule?
The TGI was 3.21 µM.

And the GI50 [35]?
Its GI50 is 2.77 µM.

And the TGI [35]?
Its TGI is 14.3 µM.

What about the GI50 [36] of the same molecule?
The GI50 was 2.48 µM.

What about the TGI [36] of the same molecule?
The TGI was 5.78 µM.

What about the GI50 [37] of the same molecule?
The GI50 was 1.48 µM.

And the TGI [37]?
The TGI was 13.8 µM.

What about the GI50 [38] of the same molecule?
The GI50 was 2.23 µM.

What about the TGI [38] of the same molecule?
Its TGI is 10.3 µM.

And the GI50 [39]?
Its GI50 is 1.36 µM.

What about the TGI [39] of the same molecule?
Its TGI is 2.78 µM.

What about the GI50 [40] of the same molecule?
Its GI50 is 2.5 µM.

What about the TGI [40] of the same molecule?
The TGI was 7.41 µM.

And the GI50 [41]?
Its GI50 is 2.57 µM.

What about the TGI [41] of the same molecule?
The TGI was 7.16 µM.

What about the GI50 [42] of the same molecule?
Its GI50 is 1.98 µM.

And the TGI [42]?
Its TGI is 4.85 µM.

What about the GI50 [43] of the same molecule?
The GI50 was 2.47 µM.

What about the TGI [43] of the same molecule?
Its TGI is 7.61 µM.

What about the GI50 [44] of the same molecule?
Its GI50 is 1.66 µM.

What about the TGI [44] of the same molecule?
The TGI was 3.47 µM.

And the GI50 [45]?
Its GI50 is 1.72 µM.

And the TGI [45]?
Its TGI is 3.16 µM.

And the GI50 [46]?
The GI50 was 6.24 µM.

What about the TGI [46] of the same molecule?
The TGI was 19 µM.

And the GI50 [47]?
Its GI50 is 2.05 µM.

What about the TGI [47] of the same molecule?
The TGI was 6.79 µM.

What about the GI50 [48] of the same molecule?
Its GI50 is 2.78 µM.

What about the TGI [48] of the same molecule?
Its TGI is 10.9 µM.

What about the GI50 [49] of the same molecule?
The GI50 was 1.23 µM.

What about the TGI [49] of the same molecule?
Its TGI is 4.33 µM.

What about the GI50 [50] of the same molecule?
Its GI50 is 0.719 µM.

What about the TGI [50] of the same molecule?
Its TGI is 15.3 µM.

What about the GI50 [51] of the same molecule?
The GI50 was 1.3 µM.

What about the TGI [51] of the same molecule?
Its TGI is 3.86 µM.

And the GI50 [52]?
The GI50 was 1.89 µM.

And the TGI [52]?
Its TGI is 5.38 µM.

What about the GI50 [53] of the same molecule?
The GI50 was 3.73 µM.

And the TGI [53]?
Its TGI is 9.6 µM.

And the GI50 [54]?
The GI50 was 1.8 µM.

What about the TGI [54] of the same molecule?
The TGI was 4.63 µM.

And the GI50 [55]?
The GI50 was 1.75 µM.

And the TGI [55]?
The TGI was 6.8 µM.

What about the GI50 [56] of the same molecule?
Its GI50 is 1.47 µM.

And the TGI [56]?
Its TGI is 3.62 µM.

What about the GI50 [57] of the same molecule?
Its GI50 is 1.07 µM.

What about the TGI [57] of the same molecule?
The TGI was 2.48 µM.
